Experimental data from ChEMBL document CHEMBL1201862, “PubChem BioAssay data set” (2004).
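Where inhibition never reached the appropriate level, the endpoint shown equals the highest concentration tested. Otherwise, values were interpolated linearly from a five-concentration, 48-hour dose response in 96-well plates. The concentration for 50% growth inhibition is given as GI50.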 Activity calls are given as the source filed them. No stated cut-off is given here; in the data, active = GI50 up to about 1.1 µM and inactive = higher.

Tests used:
Test in all cases: NCI tumour cell line growth inhibition, 48 h
UO-31 = system: UO-31
UACC-257 = system: UACC-257
TK-10 = system: TK-10
NCI-H522 = system: NCI-H522
HCT-116 = system: HCT-116
RPMI-8226 = system: RPMI-8226
HCC 2998 = system: HCC 2998
SK-OV-3 = system: SK-OV-3
786-0 = system: 786-0
SK-MEL-28 = system: SK-MEL-28
COLO 205 = system: COLO 205
MOLT-4 = system: MOLT-4
SNB-75 = system: SNB-75
M14 = system: M14
OVCAR-5 = system: OVCAR-5
HL-60 = system: HL-60
NCI-H226 = system: NCI-H226

Measured: GI50

CCOC(=N)/C(=C1\OC(=N)C(c2ccc(Cl)cc2)=C1O)c1ccc(Cl)cc1
inactive: UO-31 17.5 µM | UACC-257 17.2 µM | TK-10 28.1 µM | NCI-H522 15 µM | HCT-116 16.9 µM | RPMI-8226 14.8 µM | HCC 2998 18.1 µM | SK-OV-3 36.5 µM | 786-0 17.8 µM | SK-MEL-28 16 µM | COLO 205 16.6 µM | MOLT-4 17.9 µM | SNB-75 18.8 µM | M14 17.4 µM | OVCAR-5 19.4 µM | HL-60 17.3 µM | NCI-H226 20.5 µM

Nc1ncnc2c1ncn2[C@]1(CO)C=C(CO)C(O)C1O (stereo partly drawn)
inactive: UACC-257 > 100 µM | TK-10 > 100 µM | NCI-H522 > 100 µM | HCT-116 73.1 µM | RPMI-8226 > 100 µM | HCC 2998 > 100 µM | SK-OV-3 > 100 µM | 786-0 > 100 µM | SK-MEL-28 > 100 µM | COLO 205 > 100 µM | MOLT-4 > 100 µM | SNB-75 > 100 µM | M14 > 100 µM | OVCAR-5 80.4 µM | HL-60 > 100 µM | NCI-H226 > 100 µM

COc1cc(C(C)O)c[n+](CCC2CNc3ccccc32)c1 (stereo not drawn)
inactive: UO-31 > 100 µM | UACC-257 > 100 µM | NCI-H522 > 100 µM | HCT-116 > 100 µM | RPMI-8226 > 100 µM | HCC 2998 > 100 µM | 786-0 > 100 µM | COLO 205 43.3 µM | MOLT-4 > 100 µM | SNB-75 > 100 µM | M14 > 100 µM | HL-60 > 100 µM | NCI-H226 73.1 µM

O=C(C[n+]1ccccc1)N/N=C(/CCC(=O)N(Cc1ccccc1)Cc1ccccc1)CC(=O)c1ccccc1
inactive: UO-31 > 100 µM | UACC-257 > 100 µM | TK-10 > 100 µM | NCI-H522 > 100 µM | HCT-116 > 100 µM | RPMI-8226 > 100 µM | HCC 2998 > 100 µM | 786-0 > 100 µM | SK-MEL-28 > 100 µM | COLO 205 > 100 µM | MOLT-4 > 100 µM | SNB-75 > 100 µM | M14 > 100 µM | OVCAR-5 > 100 µM | HL-60 > 100 µM | NCI-H226 > 100 µM

N#C/C(=C\c1ccc(O)c(O)c1)c1c(C#N)c(N)nn1-c1ccccc1
inactive: UO-31 6.47 µM | UACC-257 15.5 µM | TK-10 21.8 µM | NCI-H522 3.32 µM | HCT-116 5.48 µM | HCC 2998 9.66 µM | SK-OV-3 12.9 µM | 786-0 7.67 µM | SK-MEL-28 20 µM | COLO 205 24.1 µM | SNB-75 13.3 µM | M14 9.29 µM | OVCAR-5 33 µM | HL-60 7.85 µM

O=C(N/C(=C\c1ccc(/C=C(\NC(=O)c2ccccc2)c2nc3c(O)nc(S)nc3[nH]2)cc1)c1nc2c(O)nc(S)nc2[nH]1)c1ccccc1
inactive: UO-31 > 100 µM | UACC-257 > 100 µM | TK-10 > 100 µM | NCI-H522 14.6 µM | HCT-116 44.8 µM | RPMI-8226 29.4 µM | HCC 2998 > 100 µM | SK-OV-3 > 100 µM | 786-0 > 100 µM | SK-MEL-28 29.3 µM | COLO 205 > 100 µM | MOLT-4 43 µM | SNB-75 26.4 µM | M14 > 100 µM | OVCAR-5 > 100 µM

CC12O[C@H](c3ccccc3)[C@H](c3ccccc3)N1C(=O)C1(C(=O)OCc3ccccc3)CC12 (stereo partly drawn)
inactive: UO-31 41.2 µM | UACC-257 59.8 µM | NCI-H522 39.1 µM | HCT-116 98.2 µM | HCC 2998 > 100 µM | SK-OV-3 > 100 µM | 786-0 > 100 µM | COLO 205 89.9 µM | MOLT-4 18.2 µM | SNB-75 > 100 µM | M14 64.7 µM | OVCAR-5 > 100 µM | HL-60 32.4 µM | NCI-H226 36 µM

O/N=C1/CCC/C1=C\c1ccccc1
inactive: UO-31 > 100 µM | UACC-257 > 100 µM | TK-10 > 100 µM | NCI-H522 31 µM | HCT-116 > 100 µM | RPMI-8226 > 100 µM | HCC 2998 > 100 µM | SK-OV-3 > 100 µM | 786-0 > 100 µM | SK-MEL-28 > 100 µM | COLO 205 > 100 µM | MOLT-4 42.6 µM | SNB-75 18.5 µM | M14 > 100 µM | OVCAR-5 67.5 µM | HL-60 28.6 µM | NCI-H226 > 100 µM

CC(C)c1c2[nH]c3ccccc3c2c(C(C)C)c2[nH]c3ccccc3c12
inactive: UO-31 > 100 µM | UACC-257 > 100 µM | TK-10 > 100 µM | NCI-H522 > 78.7 µM | HCT-116 > 67.3 µM | RPMI-8226 17.7 µM | HCC 2998 > 34.8 µM | SK-OV-3 > 100 µM | 786-0 > 52.5 µM | SK-MEL-28 > 100 µM | COLO 205 51.9 µM | MOLT-4 > 63.2 µM | SNB-75 > 89.7 µM | M14 > 74.8 µM | OVCAR-5 47.5 µM | HL-60 16.5 µM | NCI-H226 > 47.3 µM

CC1(C)OC2CC3COC(=O)C3CC2O1 (stereo not drawn)
inactive: UO-31 > 100 µM | UACC-257 > 100 µM | TK-10 > 100 µM | NCI-H522 > 100 µM | HCT-116 > 100 µM | RPMI-8226 > 100 µM | HCC 2998 > 100 µM | SK-OV-3 > 100 µM | 786-0 > 100 µM | SK-MEL-28 > 100 µM | COLO 205 > 100 µM | MOLT-4 > 100 µM | SNB-75 > 100 µM | M14 > 100 µM | OVCAR-5 > 100 µM | HL-60 > 100 µM | NCI-H226 > 100 µM

CC(=O)O/N=C/c1ncccc1CO
inactive: UO-31 > 100 µM | UACC-257 > 100 µM | TK-10 > 100 µM | NCI-H522 > 100 µM | HCT-116 > 100 µM | SK-OV-3 > 100 µM | 786-0 > 100 µM | SK-MEL-28 > 100 µM | COLO 205 > 100 µM | MOLT-4 > 100 µM | SNB-75 > 100 µM | M14 > 100 µM | OVCAR-5 > 100 µM | HL-60 > 100 µM | NCI-H226 > 100 µM

CCOC(=O)[C@H]1Nc2ccc(Cl)cc2[C@H]2c3ccccc3O[C@H]21
inactive: UO-31 > 100 µM | UACC-257 36.1 µM | TK-10 39.8 µM | NCI-H522 > 100 µM | HCT-116 > 100 µM | RPMI-8226 45.5 µM | HCC 2998 > 100 µM | 786-0 > 100 µM | SK-MEL-28 35.2 µM | COLO 205 > 100 µM | MOLT-4 > 100 µM | SNB-75 47.4 µM | M14 41.2 µM | OVCAR-5 > 100 µM | NCI-H226 > 100 µM

Cc1ccc(NC(=O)CCc2nc(N)nc(N)c2-c2ccccc2)cc1C
inactive: UO-31 > 100 µM | UACC-257 > 100 µM | TK-10 > 100 µM | NCI-H522 > 100 µM | HCT-116 > 100 µM | RPMI-8226 > 100 µM | HCC 2998 > 100 µM | SK-OV-3 > 100 µM | 786-0 > 100 µM | SK-MEL-28 > 100 µM | COLO 205 > 100 µM | MOLT-4 > 100 µM | SNB-75 58.7 µM | M14 > 100 µM | OVCAR-5 > 100 µM | HL-60 > 100 µM | NCI-H226 > 100 µM

O=[N+]([O-])c1ccccc1/C=N/C12CC3CC(CC(C3)C1)C2
inactive: UO-31 > 100 µM | UACC-257 > 100 µM | TK-10 > 100 µM | NCI-H522 > 100 µM | HCT-116 39.3 µM | RPMI-8226 34 µM | HCC 2998 38.1 µM | SK-OV-3 > 100 µM | 786-0 52.4 µM | SK-MEL-28 > 100 µM | COLO 205 > 100 µM | MOLT-4 34 µM | SNB-75 65 µM | M14 56.1 µM | OVCAR-5 > 100 µM | HL-60 21.4 µM | NCI-H226 > 100 µM

CC(C)COC1Sc2ccccc2S1
inactive: UO-31 15.5 µM | TK-10 21.5 µM | RPMI-8226 5.45 µM | HCC 2998 28.7 µM | SK-OV-3 28.1 µM | 786-0 22.3 µM | SK-MEL-28 17.4 µM | COLO 205 32.4 µM | MOLT-4 5.05 µM | SNB-75 1.32 µM | M14 20.6 µM

CN(C)C(=O)c1ccc([N+](=O)[O-])cc1
inactive: UO-31 > 100 µM | UACC-257 > 100 µM | TK-10 > 100 µM | NCI-H522 > 100 µM | HCT-116 > 100 µM | HCC 2998 > 100 µM | SK-OV-3 > 100 µM | 786-0 > 100 µM | SK-MEL-28 > 100 µM | COLO 205 > 100 µM | MOLT-4 > 100 µM | SNB-75 > 100 µM | M14 > 100 µM | OVCAR-5 > 100 µM | HL-60 > 100 µM | NCI-H226 > 100 µM

Cc1cc(O)cc2oc(=O)c3c(O)cc(O)cc3c12 [ALTERNARIOL]
inactive: UO-31 34.6 µM | UACC-257 > 100 µM | TK-10 44.5 µM | NCI-H522 13.4 µM | HCT-116 17.6 µM | HCC 2998 18.5 µM | SK-OV-3 18.5 µM | 786-0 28.6 µM | SK-MEL-28 > 100 µM | COLO 205 27.4 µM | MOLT-4 7.59 µM | SNB-75 12.7 µM | M14 60 µM | OVCAR-5 69.2 µM | HL-60 16.4 µM | NCI-H226 19.5 µM
